Converted amounts (≈) assume the structure as drawn.
Settings: buffer; pH 7.4; 200.0 µM

Q: With NC(=O)C1CC12c1ccccc1-c1ccccc12 (stereo not given) as the molecule, how does the solubility kinetic read?
A: 22 µg/mL (≈ 93.5 µM)

Q: Which solubility kinetic does the source give for COc1cc(C(C)=O)ccc1Oc1ncccn1 here?
A: > 36.6 µg/mL

Q: For CS(=O)(=O)c1ccc(C(=O)NCC2(N3CCOCC3)CCCCC2)cc1, which solubility kinetic is on record?
A: > 57.1 µg/mL

Q: For Cc1ccc2cccc(N)c2n1, which solubility kinetic is on record?
A: 19 µg/mL (≈ 120 µM)

Q: Which solubility kinetic does the source give for N#C/C(=C\c1ccc(O)c(O)c1)C(=O)N1CCCC1 here?
A: 37.3 µg/mL (≈ 144 µM)

Q: For COc1ccccc1C(=O)Nc1cc(-c2ccc(C)cc2)no1, which solubility kinetic is on record?
A: 0.5 µg/mL (≈ 1.62 µM)

Q: For O=C(COC(=O)/C=C/c1ccco1)Nc1cc(S(=O)(=O)N2CCOCC2)ccc1Cl, which solubility kinetic is on record?
A: 2.7 µg/mL (≈ 5.94 µM)

Q: Which solubility kinetic does the source give for COC(=O)c1cccc(NC(=S)NC(C)C)c1 here?
A: > 37.8 µg/mL

Q: For CCCOc1ccc(C(=O)Nc2ccc3c(c2)OCCO3)cc1, which solubility kinetic is on record?
A: 1 µg/mL (≈ 3.19 µM)

Q: Which solubility kinetic does the source give for C=CCNC(=O)N1CCCC(N2CCN(c3ccccc3OC)CC2)C1 (stereo not given) here?
A: > 53.8 µg/mL

Q: With COC(=O)CCN(C(=O)c1cccc([N+](=O)[O-])c1)c1ccccn1 as the molecule, how does the solubility kinetic read?
A: > 49.4 µg/mL

Q: With Cc1cc(NC(=O)C2CC(=O)N(c3ccc(Cl)cc3)C2)no1 (stereo not given) as the molecule, how does the solubility kinetic read?
A: 31 µg/mL (≈ 97 µM)

Q: For CC(C)N(Cc1ccccc1)C(=O)COC(=O)c1cnccn1, which solubility kinetic is on record?
A: > 47 µg/mL

Q: For O=C1CSC(=S)N1c1cccc(O)c1, which solubility kinetic is on record?
A: 29 µg/mL (≈ 129 µM)

Q: With Cc1cc(C)nc(SCc2c(F)cccc2Cl)n1 as the molecule, how does the solubility kinetic read?
A: < 0.3 µg/mL

Q: Which solubility kinetic does the source give for Cc1cccc(Nc2cc(C)nc3ccccc23)c1.Cl here?
A: > 42.7 µg/mL

Q: Which solubility kinetic does the source give for O=C(NCc1ccccc1Cl)c1ccc2ccccc2n1 here?
A: 6.2 µg/mL (≈ 20.9 µM)

Q: With Cc1ccc(SCCc2cc[n+](CC(=O)c3ccccc3)cc2)cc1 as the molecule, how does the solubility kinetic read?
A: 50.8 µg/mL

Q: Which solubility kinetic does the source give for CCc1cc2c(=O)c(-c3nc(C)cs3)coc2cc1O here?
A: 1.2 µg/mL (≈ 4.18 µM)

Q: For COc1ccc2[nH]c(C(=O)Nc3ncc(C)cc3Br)cc2c1, which solubility kinetic is on record?
A: 6.1 µg/mL (≈ 16.9 µM)

Q: Which solubility kinetic does the source give for CCc1cc2c(N[C@@H](Cc3ccccc3)C(=O)O)ncnc2s1 here?
A: > 49.1 µg/mL

Q: With Nc1ncnc(Oc2ccccc2F)c1[N+](=O)[O-] as the molecule, how does the solubility kinetic read?
A: 34.3 µg/mL (≈ 137 µM)

Q: For COc1ccc(N=Cc2c(O)n(C)c(=O)n(C)c2=O)cc1, which solubility kinetic is on record?
A: 11.1 µg/mL (≈ 38.4 µM)

Q: For O=C(NCCCn1ccnc1)c1ccc(Br)s1, which solubility kinetic is on record?
A: 46.9 µg/mL (≈ 149 µM)

Q: With Cc1cc(-c2ccccc2)c2ccc(NC(=O)C(C)(C)C)nc2n1 as the molecule, how does the solubility kinetic read?
A: 0.6 µg/mL (≈ 1.88 µM)

Q: For COc1ccc(Nc2nc(N)nc(CN3CCC(C)CC3)n2)cc1, which solubility kinetic is on record?
A: > 49.3 µg/mL

Q: Which solubility kinetic does the source give for CC1(C)NC(=O)N(CCC(=O)Nc2cc(C(F)(F)F)ccc2Cl)C1=O here?
A: > 56.7 µg/mL

Q: With COc1ccc(C2NC(=O)NC(C)=C2[N+](=O)[O-])cc1OC (stereo not given) as the molecule, how does the solubility kinetic read?
A: > 44 µg/mL

Q: With COc1ccc(NC(=O)C2C3CCC(O3)C2C(=O)O)c(C)c1 (stereo not given) as the molecule, how does the solubility kinetic read?
A: 45.4 µg/mL (≈ 149 µM)

Q: For Cc1cc2oc(=O)cc(CN(C)Cc3ccccc3Cl)c2cc1C, which solubility kinetic is on record?
A: < 0.7 µg/mL

Q: With CN(c1ccc(OCCOc2ccccc2Cl)cc1)S(=O)(=O)c1ccccc1 as the molecule, how does the solubility kinetic read?
A: 6.2 µg/mL (≈ 14.8 µM)

Q: Which solubility kinetic does the source give for Cn1c(N)c(Sc2ccccc2[N+](=O)[O-])c(=O)n(C)c1=O here?
A: 41.5 µg/mL (≈ 135 µM)

Q: For O=C(O)C1CCCN1S(=O)(=O)c1ccc(Cl)cc1 (stereo not given), which solubility kinetic is on record?
A: > 43.5 µg/mL

Q: For COc1ccc(NC(=O)CC(Cc2ccc(Cl)cc2)C(=O)O)cc1 (stereo not given), which solubility kinetic is on record?
A: > 52.2 µg/mL

Q: Which solubility kinetic does the source give for CCCNC(=O)Nc1nc2ccccc2s1 here?
A: 34 µg/mL (≈ 144 µM)

Q: With COc1cc(CN2CCCCCC2)cc(OC)c1OC.O=C(O)C(=O)O as the molecule, how does the solubility kinetic read?
A: > 55.4 µg/mL

Q: With CCc1nonc1NC(=O)c1oc2cc(C)c(Cl)cc2c1C as the molecule, how does the solubility kinetic read?
A: 0.5 µg/mL (≈ 1.56 µM)

Q: For OC(COc1ccc(Cl)cc1)CSc1ccccn1 (stereo not given), which solubility kinetic is on record?
A: 37.5 µg/mL (≈ 127 µM)

Q: Which solubility kinetic does the source give for Cc1ccc(C)c(C(C)NC(=O)C2CCCC2)c1 (stereo not given) here?
A: 33.2 µg/mL (≈ 135 µM)

Q: With O=C1CN(C(=O)COC(=O)[C@@H]2CC(O)CN2S(=O)(=O)c2ccc(Cl)cc2)c2ccccc2N1 (stereo not given in full) as the molecule, how does the solubility kinetic read?
A: > 74.1 µg/mL

Q: Which solubility kinetic does the source give for O=C(COC(=O)c1cccs1)Nc1ccccc1Cl here?
A: 2.3 µg/mL (≈ 7.78 µM)

Q: For O=C(/C=C/c1ccccc1)N(Cc1cccs1)C1CCS(=O)(=O)C1 (stereo not given), which solubility kinetic is on record?
A: > 54.2 µg/mL

Q: Which solubility kinetic does the source give for COc1ccc2c(c1)c(C(C)=O)c(C)n2Cc1ccco1 here?
A: 36.7 µg/mL (≈ 130 µM)

Q: With Cc1nc(SCC(=O)N2CCCCCC2)[nH]c(=O)c1C as the molecule, how does the solubility kinetic read?
A: > 44.3 µg/mL

Q: With CC(=O)NC1(C(F)(F)F)C(=O)Nc2c1c(=O)[nH]c(=O)n2CC(C)C (stereo not given) as the molecule, how does the solubility kinetic read?
A: < 0.2 µg/mL

Q: Which solubility kinetic does the source give for Cc1ccccc1C1NC(c2ccccc2C)C(C)C(=O)C1C (stereo not given) here?
A: 7.7 µg/mL (≈ 25 µM)

Q: Which solubility kinetic does the source give for Cc1ccc(-c2csc(N=C(N)N)n2)cc1 here?
A: 15.7 µg/mL (≈ 67.6 µM)

Q: For O=C(CCSc1ccccc1)Nc1ccccc1Br, which solubility kinetic is on record?
A: 6.6 µg/mL (≈ 19.6 µM)

Q: Which solubility kinetic does the source give for CN1C(=O)NC(c2ccccc2Cl)C2=C1CC(C)(C)CC2=O (stereo not given) here?
A: > 47.8 µg/mL

Q: For Cc1cc(C)nc(Nc2nc(-c3ccccc3)cs2)n1, which solubility kinetic is on record?
A: < 0.2 µg/mL

Q: For COc1ccccc1/C=C/C(=O)OCC(=O)NC1CCCCCCC1, which solubility kinetic is on record?
A: 7.4 µg/mL (≈ 21.4 µM)

Q: With COc1ccnc2c1c(=O)n(Cc1ccc(Cl)cc1)c(=O)n2C as the molecule, how does the solubility kinetic read?
A: 9.3 µg/mL (≈ 28 µM)

Q: With CCN(CC)c1nc(C)nc2c1sc(=S)n2C as the molecule, how does the solubility kinetic read?
A: 0.6 µg/mL (≈ 2.24 µM)

Q: With CCC(=O)OCC(=O)Nc1ccc2c(c1)OCO2 as the molecule, how does the solubility kinetic read?
A: > 37.7 µg/mL

Q: For CC(=O)c1cc(CN2CCN(CCC(C)C)C(CCO)C2)cs1 (stereo not given), which solubility kinetic is on record?
A: > 50.8 µg/mL

Q: For CC(C)NC(=O)CCc1nc2cccnc2n1-c1ccccc1, which solubility kinetic is on record?
A: 43.3 µg/mL (≈ 140 µM)

Q: With O=C(COC(=O)c1cc[n+]([O-])cc1)Nc1cccc(F)c1 as the molecule, how does the solubility kinetic read?
A: > 43.5 µg/mL

Q: For O=C(CC(Cc1ccccc1)C(=O)O)Nc1ccccc1 (stereo not given), which solubility kinetic is on record?
A: > 42.5 µg/mL

Q: With CC(NC(=O)c1ccc(N(C)C)cc1)c1ccc(F)cc1 (stereo not given) as the molecule, how does the solubility kinetic read?
A: 6.5 µg/mL (≈ 22.7 µM)

Q: Which solubility kinetic does the source give for CCN(CC)CCNC(=O)C(=O)Nc1ccc(C(=O)OC)cc1 here?
A: > 48.2 µg/mL

Source: PubChem BioAssay AID1996
